US20140031217A1, “HERBICIDAL COMPOSITIONS COMPRISING 4-AMINO-3-CHLORO-5-FLUORO-6-(4-CHLORO-2-FLUORO-3-METHOXYPHENYL)PYRIDINE-2-CARBOXYLIC ACID OR A DERIVATIVE THEREOF AND AUXIN TRANSPORT INHIBITORS” (DOW AGROSCIENCES LLC, priority 2012, published 2014)

What was measured:
ECHCO = experiment: Postemergence foliar-applied greenhouse weed control, ECHCO; assay type: in vivo, Echinochloa colona (L.) Link
Text: (§1) Seeds or nutlets of the desired test plant species were planted in a soil matrix prepared by mixing a loam or sandy loam soil (e.g., 28.6 percent silt, 18.8 percent clay, and 52.6 percent sand, with a pH of about 5.8 and an organic matter content of about 1.8 percent) and calcareous grit in an 80 to 20 ratio. The soil matrix was contained in plastic pots with a volume of 1 quart and a surface area of 83.6 square centimeters (cm^2). When required to ensure good germination and healthy plants, a fungicide treatment and/or other chemical or physical treatment was applied. The plants were grown for 8-22 days in a greenhouse with an approximate 14 h photoperiod which was maintained at about 29° C. during the day and 26° C. during the night. Nutrients (Peters Excel® 15-5-15 5-Ca 2-Mg and iron chelate) were applied in the irrigation solution as needed and water was added on a regular basis. Supplemental lighting was provided with overhead metal halide 1000-Watt lamps as necessary. The plants were employed for testing when they reached the first through fourth true leaf stage.
(§2) Treatments consisted of the acid or esters of 4-amino-3-chloro-5-fluoro-6-(4-chloro-2-fluoro-3-methoxy-phenyl) pyridine-2-carboxylic acid (Compound A), each formulated as an SC (suspension concentrate), and various herbicidal components alone and in combination. Forms of compound A were applied on an acid equivalent basis.
(§3) Other herbicidal components were applied on an active ingredient basis and included auxin transport inhibiting (ATI) herbicides chlorflurenol (technical material), chlorflurenol-methyl (technical material), diflufenzopyr (technical material), diflufenzopyr sodium (technical material), flurenol-methyl (technical material) and naptalam (technical material).
(§4) Treatment requirements were calculated based upon the rates being tested, the concentration of active ingredient or acid equivalent in the formulation, and a 12 mL application volume at a rate of 187 L/ha.
(§5) For treatments comprised of formulated and technical compounds, weighed amounts of the technical materials were placed individually in 25 mL glass vials and dissolved in a volume of 97:3 v/v acetone/DMSO to obtain 12× stock solutions, and measured amounts of the formulated compounds were placed individually in 25 mL glass vials and diluted in a volume of 1.5% (v/v) crop oil concentrate or water to obtain 12× stock solutions. […] Application solutions were prepared by adding an appropriate amount of each stock solution (e.g., 1 mL) and diluted to the appropriate final concentrations with the addition of an appropriate amount of an aqueous mixture of 1.5% (v/v) crop oil concentrate so that the final spray solutions contained 1.25% (v/v) crop oil concentrate. When required, additional water and/or 97:3 v/v acetone/DMSO was added to individual application solutions so that the final acetone and DMSO concentrations of the application solutions being compared were 8.1% and 0.25%, respectively.
(§6) All stock solutions and applications solutions were visually inspected for compound compatibility prior to application. Spray solutions were applied to the plant material with an overhead Mandel track sprayer equipped with an 8002E nozzle calibrated to deliver 187 L/ha over an application area of 0.503 m^2 at a spray height of 18 to 20 inches (46 to 50 cm) above average plant canopy height. Control plants were sprayed in the same manner with the solvent blank.
(§7) The treated plants and control plants were placed in a greenhouse as described above and watered by sub-irrigation to prevent wash-off of the test compounds. After approximately 3 weeks, the condition of the test plants as compared with that of the untreated plants was determined visually and scored on a scale of 0 to 100 percent where 0 corresponds to no injury or growth inhibition and 100 corresponds to complete kill. […]

LEFCH = experiment: Postemergence foliar-applied greenhouse weed control, LEFCH; assay type: in vivo, Leptochloa chinensis (L.) Nees
Text: as §1, §2, §3, §4, §5, §6, §7

| Structure (SMILES) | Visual Weed Control (%) Obs (ECHCO; 20 DAA, 4.38 gae/ha) | Visual Weed Control (%) Obs (ECHCO; 21 DAA, 4.38 gae/ha) | Visual Weed Control (%) Obs (LEFCH; 20 DAA, 4.38 gae/ha) | Visual Weed Control (%) Obs (LEFCH; 20 DAA, 8.75 gae/ha) | Visual Weed Control (%) Obs (LEFCH; 20 DAA, 17.5 gae/ha) | Visual Weed Control (%) Obs (LEFCH; 21 DAA, 8.75 gae/ha) | Visual Weed Control (%) Obs (LEFCH; 21 DAA, 17.5 gae/ha) | Visual Weed Control (%) Obs (ECHCO; 20 DAA, 8.75 gae/ha) | Visual Weed Control (%) Obs (LEFCH; 21 DAA, 4.38 gae/ha) | Visual Weed Control (%) Obs (LEFCH; 22 DAA, 32 gae/ha) |
| --- | --- | --- | --- | --- | --- | --- | --- | --- | --- | --- |
| COc1c(Cl)ccc(-c2nc(C(=O)O)c(Cl)c(N)c2F)c1F [Compound A Acid, 4-amino-3-chloro-6-(4-chloro-2-fluoro-3-methoxyphenyl)-5-fluoropyridine-2-carboxylic acid] | 40% | 60% | 0% | 30% | 30% | 30% | 30% |  |  |  |
| COc1c(Cl)ccc(-c2nc(C(=O)OCc3ccccc3)c(Cl)c(N)c2F)c1F [Compound A Benzyl Ester] | 60% |  | 15% | 30% |  | 40% | 50% | 80% | 15% | 40% |
